Data from ChEMBL document CHEMBL1129522, “Inhibitors of acyl-CoA:cholesterol O-acyltransferase. 17. Structure-activity relationships of several series of compounds derived from N-chlorosulfonyl isocyanate” (J Med Chem, 1996).
Values joined by “and” are separate entries in the source; they are usually repeats but may differ in a detail not shown here. Equal values may be shown once.

Tests used:
[1] = molecular target: T1, Sterol O-acyltransferase 1 (Rattus norvegicus, UniProt O70536); assay: In vitro inhibitory activity against acyl coenzyme A:cholesterol acyltransferase 1 in microsomes of rat liver
T1 sequence (O70536 whole entry): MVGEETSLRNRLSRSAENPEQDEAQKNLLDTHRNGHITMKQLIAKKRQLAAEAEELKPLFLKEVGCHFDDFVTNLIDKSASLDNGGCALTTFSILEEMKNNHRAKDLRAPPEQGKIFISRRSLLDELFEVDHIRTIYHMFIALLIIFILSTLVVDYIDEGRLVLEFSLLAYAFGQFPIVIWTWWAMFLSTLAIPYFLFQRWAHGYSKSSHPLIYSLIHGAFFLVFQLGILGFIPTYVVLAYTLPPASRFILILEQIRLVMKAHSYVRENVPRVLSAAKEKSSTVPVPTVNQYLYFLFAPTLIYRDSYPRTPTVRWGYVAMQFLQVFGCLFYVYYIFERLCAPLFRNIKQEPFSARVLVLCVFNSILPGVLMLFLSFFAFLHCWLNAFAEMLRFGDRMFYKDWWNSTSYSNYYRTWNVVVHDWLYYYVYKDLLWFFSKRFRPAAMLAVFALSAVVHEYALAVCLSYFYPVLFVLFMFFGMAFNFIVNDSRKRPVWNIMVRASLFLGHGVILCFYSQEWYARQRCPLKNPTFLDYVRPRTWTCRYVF

[2] = tested on: Rattus norvegicus; assay: Acute in vivo activity measured by total plasma cholesterol concentration levels (TC) at 30 mg/kg dose; format: functional
[3] = molecular target: T2, Sterol O-acyltransferase 1 (Rattus norvegicus) (UniProt O70536); assay: Acute in vivo activity was measured by the total plasma cholesterol concentration levels(TC) at dose 3 mg/kg; format: functional, organism-based; parameters: dose 3 mg/kg
T2 sequence (whole entry): T1 sequence (O70536 whole entry)

SMILES | IC50 [1] [µM] | Delta TC [2] [%] | Delta TC [3]
CCCCCN(CCCCC)S(=O)(=O)NC(=O)Oc1c(C(C)(C)C)cc(C)cc1C(C)(C)C | 2.2 | – | –
CC(C)NS(=O)(=O)NC(=O)Nc1c(C(C)C)cccc1C(C)C | 18 | – | –
CC(C)c1cccc(C(C)C)c1NS(=O)(=O)NC(=O)N(Cc1ccccc1)Cc1ccccc1 | 16 | – | –
Cc1cccc(C)c1OC(=O)NS(=O)(=O)Oc1c(C(C)C)cccc1C(C)C | > 50 | -37 | –
CCCCN(CCCC)S(=O)(=O)NC(=O)Oc1c(C(C)C)cccc1C(C)C [listing 1 of 2 here] | 1.9 | – | –
CCCCCCNS(=O)(=O)NC(=O)Nc1c(C(C)C)cccc1C(C)C | 8.1 | – | –
CC(C)c1cccc(C(C)C)c1OS(=O)(=O)NC(=O)OC1CCCCC1 | 38 | -38 | –
CC(C)c1ccc(OC(=O)NS(=O)(=O)Oc2c(C(C)C)cccc2C(C)C)c(C(C)C)c1 | > 50 | 6 | –
CC(C)c1cccc(C(C)C)c1OC(=O)NS(=O)(=O)Oc1c(F)cccc1F | 38 | 9 | –
COC(=O)NS(=O)(=O)Oc1c(C(C)C)cccc1C(C)C | > 100 | – | –
COc1cccc(OC)c1OC(=O)NS(=O)(=O)Oc1c(C(C)C)cccc1C(C)C [listing 1 of 2 here] | > 50 | -61 | –
CCCCN(CCCC)S(=O)(=O)NC(=O)Oc1c(C(C)C)cccc1C(C)C [listing 2 of 2 here] | 1.9 | – | –
CCCCCCCCN(CCCCCCCC)S(=O)(=O)NC(=O)Oc1c(C(C)(C)C)cc(C)cc1C(C)(C)C | 2.7 | – | –
CC(C)c1cccc(C(C)C)c1OC(=O)[N-]S(=O)(=O)Oc1c(C(C)C)cccc1C(C)C.[Na+] | – | -74 | –
CCCCCCCCCCCCN(CCCCCCCCCCCC)S(=O)(=O)NC(=O)Nc1c(C(C)C)cccc1C(C)C | 69 | -5 | –
Cc1cc(C(C)(C)C)c(OC(=O)NS(=O)(=O)N(C)CCc2ccccn2)c(C(C)(C)C)c1 | 31 | – | –
CCCCN(CCCC)S(=O)(=O)NC(=O)Nc1c(C(C)C)cccc1C(C)C | 0.53 | – | –
Cc1cc(C)c(C)c(OC(=O)NS(=O)(=O)Oc2c(C(C)C)cccc2C(C)C)c1C | > 50 | -17 | –
CCCCCCCCCCCCOS(=O)(=O)NC(=O)Nc1c(C(C)C)cccc1C(C)C | 6.8 | – | –
CCOC(=O)NS(=O)(=O)Oc1c(C(C)C)cccc1C(C)C | > 50 | -14 | –

SMILES | IC50 [1] [µM] | Delta TC [2] [%] | Delta TC [3]
CCCCN(CCCC)S(=O)(=O)N(C)C(=O)Nc1c(C(C)C)cccc1C(C)C | > 5 | – | –
CCCCCCNS(=O)(=O)NC(=O)Oc1c(C(C)(C)C)cc(C)cc1C(C)(C)C | 19.4 | – | -10%
COc1cc(C(C)(C)C)c(OC(=O)NS(=O)(=O)NCC(c2ccccc2)c2ccccc2)c(C(C)(C)C)c1 | 82 | – | -15%
CCCCCCCCCCCCOC(=O)NS(=O)(=O)Nc1c(C(C)C)cccc1C(C)C | 33 | – | –
CCCCN(C)S(=O)(=O)NC(=O)Nc1c(C(C)C)cccc1C(C)C | 2.3 | – | -37%
CCCCCCOS(=O)(=O)NC(=O)Nc1c(C(C)C)cccc1C(C)C | 27 | – | -8%
C=CCN(CC)S(=O)(=O)NC(=O)Nc1c(C(C)C)cccc1C(C)C | 2.1 | – | –
CC(C)c1cccc(C(C)C)c1NS(=O)(=O)NC(=O)NC(c1ccccc1)c1ccccc1 | 30 | – | -5%
Cc1cc(C(C)(C)C)c(OC(=O)NS(=O)(=O)N(C(C)C)C(C)C)c(C(C)(C)C)c1 | 3.2 | – | –
CC(C)c1cccc(C(C)C)c1OC(=O)NS(=O)(=O)N1CCN(C)CC1 | > 100 | – | –
CCCCCCCCCCC(C)OS(=O)(=O)NC(=O)Nc1c(C(C)C)cccc1C(C)C (centres undefined) | – | – | -48%
CCCCCCCCCCN(CCCCCCCCCC)S(=O)(=O)NC(=O)Oc1c(C(C)(C)C)cc(C)cc1C(C)(C)C | 89 | – | –
COc1cccc(OC)c1OC(=O)NS(=O)(=O)Oc1c(C(C)C)cccc1C(C)C [listing 2 of 2 here] | – | – | -12% and -4%
CCCCCCCCCCOS(=O)(=O)NC(=O)Nc1c(C(C)C)cccc1C(C)C | > 10 | – | –
CC(C)c1cccc(C(C)C)c1OC(=O)NS(=O)(=O)N1CCc2ccccc21 | 43 | – | -31%
CC(C)c1cccc(C(C)C)c1NC(=O)NS(=O)(=O)N(CCCN(C)C)CCCN(C)C | 55 | – | –
CC(C)c1cccc(C(C)C)c1OC(=O)NS(=O)(=O)N(Cc1ccccc1)Cc1ccccc1 | 20 | – | -17%
CCN(CC)S(=O)(=O)NC(=O)Nc1c(C(C)C)cccc1C(C)C | 2.5 | – | –
CN(C(=O)Oc1c(C(C)(C)C)cccc1C(C)(C)C)S(=O)(=O)NC(c1ccccc1)c1ccccc1 | 4.6 | – | –
